According to US9546158B2, “2,5-substituted pyrimidines” (Grünenthal GmbH, priority 2014, dated 2017):

What was measured:
human PDE4B1 = target: T1, human PDE4B1 (Homo sapiens, UniProt Q07343); assay: TR-FRET assay using the LANCE Ultra cAMP kit to determine the activity of hPDE4B1; format: biochemical; details: test substrate concentration of 10 μM, read-out: Inhibition of PDE4B, Inhibition in %
T1 construct: host or cells: Sf9 cells
Description: TR-FRET Assay Using the LANCE® Ultra cAMP Kit to Determine the Activity of hPDE4B1
The effects of the compounds on the activity of the human PDE4B1 was quantified by measuring the production of 5′AMP from cAMP using a human recombinant enzyme expressed in Sf9 cells and the LANCE® Ultra cAMP kit, a TR-FRET detection method from PerkinElmer. The human PDE4B1 enzyme was purchased from SignalChem Lifesciences (Catalog #P92-31BG, Lot #H296-2).
The test compound, reference compound or water (control) was mixed with the enzyme (0.96 U) in a reaction buffer containing 50 mM Tris-HCl, 50 mM MgCl2 and 5 mM DTT (pH 8.5). Thereafter, the reaction was initiated by addition of 500 nM cAMP (substrate) and the mixture was incubated for 30 minutes at room temperature. For control basal measurements, the enzyme was omitted from the reaction mixture. After 30 minutes, the reaction was stopped and diluted by a factor of 100 with the reaction buffer supplemented with 500 μM IBMX. The fluorescence donor (europium chelate-labeled cAMP) and the fluorescence acceptor (anti-cAMP antibody labeled with the ULight™ dye) were then added together with 500 μM IBMX to a 10 μl aliquot. After 60 minutes, the fluorescence transfer corresponding to the amount of residual cAMP was measured at λex=337 nm, λem=620 nm and λem=665 nm using a microplate reader (PHERAstar, BMG). The enzyme activity was determined by dividing the signal measured at 665 nm by that measured at 620 nm (ratio) multiplied by 10000. The results were expressed as percent inhibition of the control enzyme activity. IC50 values (IC50=concentration causing a half-maximal inhibition of control specific activity) were derived from dose response measurements with ten different concentrations (n=3; N=1-3).

T1 sequence (Q07343 whole entry): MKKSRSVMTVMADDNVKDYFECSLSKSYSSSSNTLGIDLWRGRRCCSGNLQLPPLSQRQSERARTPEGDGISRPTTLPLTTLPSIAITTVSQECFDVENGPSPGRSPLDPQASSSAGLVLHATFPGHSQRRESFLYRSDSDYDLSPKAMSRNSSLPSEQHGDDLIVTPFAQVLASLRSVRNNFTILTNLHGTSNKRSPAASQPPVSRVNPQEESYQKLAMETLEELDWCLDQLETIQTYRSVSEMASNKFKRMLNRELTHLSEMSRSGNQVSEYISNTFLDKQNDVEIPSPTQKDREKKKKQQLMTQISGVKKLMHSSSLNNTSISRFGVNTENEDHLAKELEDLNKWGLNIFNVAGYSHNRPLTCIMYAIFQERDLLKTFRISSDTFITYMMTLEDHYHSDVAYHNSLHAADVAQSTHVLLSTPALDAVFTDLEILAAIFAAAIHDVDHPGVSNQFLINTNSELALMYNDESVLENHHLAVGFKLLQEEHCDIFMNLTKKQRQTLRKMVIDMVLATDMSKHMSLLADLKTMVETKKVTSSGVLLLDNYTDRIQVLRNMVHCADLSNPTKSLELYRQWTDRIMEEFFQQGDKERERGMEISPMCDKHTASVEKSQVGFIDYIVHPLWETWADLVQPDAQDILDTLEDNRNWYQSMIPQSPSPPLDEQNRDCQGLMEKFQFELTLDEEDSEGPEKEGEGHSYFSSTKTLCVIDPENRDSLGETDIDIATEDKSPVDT

Compound | melting point | inhibition at 10 µM (human PDE4B1)
Cc1nn(-c2ncc(-c3cc(S(C)(=O)=O)ccc3F)cn2)c2cc(C(=O)N(C)CC(N)=O)ccc12 [Compound No. 63, N-(2-Amino-2-oxoethyl)-1-(5-(2-fluoro-5-(methylsulfonyl)phenyl)pyrimidin-2-yl)-N,3-dimethyl-1H-indazole-6-carboxamide] | 255 to 259 °C | 75%
Cc1nn(-c2ncc(-c3cc([S+](C)[O-])ccc3F)cn2)c2cc(C(=O)N(C)CC(N)=O)ccc12 (stereo not shown) [Compound No. 64, N-(2-Amino-2-oxoethyl)-1-(5-(2-fluoro-5-(methylsulfinyl)phenyl)pyrimidin-2-yl)-N,3-dimethyl-1H-indazole-6-carboxamide] | 164 to 168 °C | 42%
